From US20250134095A1, “COMPOSITIONS FOR ORGAN AND TISSUE PRESERVATION” (Albert Einstein College of Medicine, priority 2021, published 2025)
“Also recorded” adds a separate entry of the source. Peptide text beside a SMILES is read from it. * marks the point of attachment. Cbz = O=C(OCc1ccccc1)*; CH2F = FC*

Legend:
pig kidneys = test: TUNEL staining for cell death in cold stored pig kidneys; conditions: flushed and stored at 4° C. in University of Wisconsin solution with 10 μg/mL, 72 hours
From the text: (§1) Methods: TUNEL Staining and Quantification. Frozen kidney sections were fixed with 4% paraformaldehyde and stained according to standard protocols for the In Situ Cell Death Detection Kit, TMR red (Millipore Sigma). The number of DAPI positive and TUNEL positive cells were quantified using cell counter macros in ImageJ across mouse, pig, and human samples.
(§2) Murine and Porcine Kidney Recoveries. Mouse and pig kidneys were recovered using standard organ recovery protocols. Prior to flushing the abdominal cavity with preservation solution, mice and pigs were given heparin to help increase flow and prevent clotting within the system.
(§3) Mice were flushed with BAI supplemented University of Wisconsin solution (2 mg/kg total mouse weight) at time of organ recovery. Mouse kidneys were stored in the same concentration of BAI1 supplemented preservation solution that was used to flush the mice at time of organ harvest. Pig kidneys were flushed with 500 mL of University of Wisconsin solution supplemented with BAI1 at 10 μg/mL. They were then stored at 4° C. in 500 mL of University of Wisconsin solution supplemented with BAI1 at 10 μg/mL for 72 hours.

mouse kidneys = test: TUNEL staining for cell death in cold stored mouse kidneys; conditions: 2 mg/kg total mouse weight in University of Wisconsin cold preservation solution, flush at organ recovery and storage, 72 hours cold storage
From the text: as §1, §2
Bax KO or Wildtype mice (3× per group) were euthanized and then organs recovered following standard organ transplant procedures. […] At the proscribed time points, kidneys were snap frozen for subsequent cell death assessment by fluorescent TUNEL staining of frozen sections collected on an EVOS2 scope. Quantification of TUNEL staining was performed with custom matlab code following standard image analysis procedures.
as §3

human organ culture = test: Cell death in human organ culture model (kidney)
Experimental: as §1
To better appreciate how kidneys respond to cold ischemia, a series of […] kidneys was biopsied at times from 12 to 72 hours of cold storage. To decreased observed cell death, a Bax inhibitor (BAI1) was tested in a human organ culture model.
To assess the extent of cell death during cold preservation, a series of eleven human kidneys were repeatedly biopsied at times from 12 to 72 hours of cold storage. […] Cell death increased over time and became apparent in marginal donors between 30-36 hours of cold storage. Human kidneys with the cell death phenotype were also shown to have distinct upregulation of metabolites (e.g. xylose, isothreonic acid, 3-hydroxy-3-methylglutaric acid, conduritol-beta-epoxide, hippuric acid, pseudo uridine, hydroxyproline dipeptide, 4-hydroxyhippuric acid) as compared to the younger, healthier cohort of organs.

SMILES | cell death during prolonged cold storage (TUNEL staining) (pig kidneys) | cell death during prolonged cold storage (TUNEL staining) (mouse kidneys) | cell death in human organ culture after a period of warm injury (human organ culture; after a period of warm injury) | cell death in human organ culture during cold storage (human organ culture; during cold storage)
OC(CN1CCNCC1)Cn1c2ccc(Br)cc2c2cc(Br)ccc21 (stereo not shown) [BAI1] | prevents cell death | prevents cell death; also recorded: abrogates cell death | significantly decreased cell death | significantly decreased cell death
CN1C(=O)C(Cc2c[nH]c3ccccc23)NC1=S (stereo not shown) [necrostatin-1] | – | did not appear to reduce the amount of cell death | – | –
CCOC(=O)c1ccc(NC2CCCCC2)c(N)c1 [ferrostatin-1] | – | did not appear to reduce the amount of cell death | – | –
COC(=O)C[C@H](NC(=O)[C@H](C)NC(=O)[C@@H](NC(=O)OCc1ccccc1)C(C)C)C(=O)CF [Z-VAD-FMK] (Cbz-Val-Ala-Asp(OMe)-CH2F) | – | did not appear to reduce the amount of cell death | – | –
